Key:
Assay type in all cases: cell-based
[1] = system: Cystic fibrosis transmembrane conductance regulator (Homo sapiens), P13569 [F508del]; assay: (§1) Corrector activity at HRP-fused CFTR F508del mutant (unknown origin) expressed in human CFBE41o cells assessed as increase in matured protein levels at cell surface at 20 uM after 18 to 24 hrs in presence of co-corrector 3-[(2R,4R)-4-({[l-(2,2-difluoro-l,3-benzodioxol-5-yl)cyclopropyl]carbonyl}amino)-7-methoxy-3,4-dihydro-2H-chromen-2-yl]benzoic acid by luminescence assay relative to co-corrector
[2] = molecular target: T1, Cystic fibrosis transmembrane conductance regulator (Homo sapiens, UniProt P13569, F508DEL); assay: as §1, with “surface” for “surface at 20 uM”, “assay” for “assay relative to co-corrector”
[3] = system: Cystic fibrosis transmembrane conductance regulator (Homo sapiens), P13569 [F508del]; assay: Corrector activity at HRP-fused CFTR F508del mutant (unknown origin) expressed in human CFBE41o cells assessed as increase in matured protein levels at cell surface at 20 uM after 18 to 24 hrs by luminescence assay relative to 3-[(2R,4R)-4-({[l-(2,2-difluoro-l,3-benzodioxol-5-yl)cyclopropyl]carbonyl}amino)-7-methoxy-3,4-dihydro-2H-chromen-2-yl]benzoic acid
[4] = molecular target: T1, Cystic fibrosis transmembrane conductance regulator; assay: Corrector activity at HRP-fused CFTR F508del mutant (unknown origin) expressed in human CFBE41o cells assessed as increase in matured protein levels at cell surface after 18 to 24 hrs by luminescence assay

T1 sequence (P13569 as listed by the source): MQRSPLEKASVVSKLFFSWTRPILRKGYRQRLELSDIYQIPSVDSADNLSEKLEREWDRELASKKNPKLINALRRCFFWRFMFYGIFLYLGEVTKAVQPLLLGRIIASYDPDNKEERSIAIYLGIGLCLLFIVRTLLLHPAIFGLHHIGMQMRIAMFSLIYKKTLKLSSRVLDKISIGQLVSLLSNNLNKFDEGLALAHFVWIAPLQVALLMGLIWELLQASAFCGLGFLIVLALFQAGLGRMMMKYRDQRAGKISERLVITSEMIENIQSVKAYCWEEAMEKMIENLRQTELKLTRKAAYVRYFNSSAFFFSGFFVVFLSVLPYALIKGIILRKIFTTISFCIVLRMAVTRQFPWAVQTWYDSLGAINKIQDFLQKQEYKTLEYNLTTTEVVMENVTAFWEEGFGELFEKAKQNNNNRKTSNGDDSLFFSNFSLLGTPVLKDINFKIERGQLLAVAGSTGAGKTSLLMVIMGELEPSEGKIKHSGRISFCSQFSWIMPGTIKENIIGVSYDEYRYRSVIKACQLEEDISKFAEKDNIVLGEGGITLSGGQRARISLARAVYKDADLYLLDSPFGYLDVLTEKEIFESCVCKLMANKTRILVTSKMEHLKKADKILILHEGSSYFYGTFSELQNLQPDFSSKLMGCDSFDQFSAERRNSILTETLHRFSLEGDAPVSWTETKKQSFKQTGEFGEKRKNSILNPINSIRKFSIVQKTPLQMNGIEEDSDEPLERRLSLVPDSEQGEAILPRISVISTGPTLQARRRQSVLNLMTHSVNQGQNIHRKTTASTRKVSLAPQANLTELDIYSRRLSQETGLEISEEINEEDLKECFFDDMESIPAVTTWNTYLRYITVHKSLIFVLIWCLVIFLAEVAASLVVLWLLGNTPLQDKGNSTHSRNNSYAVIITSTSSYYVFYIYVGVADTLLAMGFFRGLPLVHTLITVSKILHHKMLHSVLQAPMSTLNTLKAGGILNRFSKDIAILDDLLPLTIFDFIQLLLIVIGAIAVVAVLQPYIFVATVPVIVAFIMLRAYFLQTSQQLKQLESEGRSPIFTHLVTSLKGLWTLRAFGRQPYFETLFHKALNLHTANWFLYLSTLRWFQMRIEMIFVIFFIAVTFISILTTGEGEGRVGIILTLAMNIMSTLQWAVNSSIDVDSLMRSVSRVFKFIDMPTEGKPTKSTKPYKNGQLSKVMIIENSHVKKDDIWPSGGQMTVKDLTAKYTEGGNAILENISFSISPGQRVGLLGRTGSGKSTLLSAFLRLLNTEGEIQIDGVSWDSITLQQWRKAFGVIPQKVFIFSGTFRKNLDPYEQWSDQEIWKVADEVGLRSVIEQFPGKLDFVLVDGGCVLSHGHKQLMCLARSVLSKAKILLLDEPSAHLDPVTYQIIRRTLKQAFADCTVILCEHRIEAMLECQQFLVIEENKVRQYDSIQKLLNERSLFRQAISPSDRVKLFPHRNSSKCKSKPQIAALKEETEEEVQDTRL
Cystic fibrosis transmembrane conductance regulator (Homo sapiens), P13569 [F508del], sequence (P13569 as listed by the source): as above

| SMILES | %max [1] | EC50 [2] | %max [3] | EC50 [4] |
| --- | --- | --- | --- | --- |
| COc1ccc(-c2cccc(F)c2F)cc1CN[C@H]1[C@H](C(C)(C)C)[C@@H](C(=O)O)N(C(=O)C2CCCCC2)[C@H]1c1ccccc1 | > 350% | < 1000 nM | > 200% | < 1000 nM |
| COc1ccc(C(C)(C)C)cc1CN[C@H]1[C@H](C(C)(C)C)[C@@H](C(=O)O)N(C(=O)[C@@H]2Cc3ccccc3O2)[C@H]1c1ccccc1 | > 350% | < 1000 nM | > 200% | < 1000 nM |
| COc1ccc([Si](C)(C)C)cc1CN[C@H]1[C@H](C(C)(C)C)[C@@H](C(=O)O)N(C(=O)C2CCCCC2)[C@H]1c1ccccc1 | > 350% | < 1000 nM | > 200% | < 1000 nM |
| COc1cc2c(cc1CN[C@H]1[C@H](C(C)(C)C)[C@@H](C(=O)O)N(C(=O)C3CCCCC3)[C@H]1c1ccccc1)C(C)(C)CCC2(C)C | > 350% | < 1000 nM | 100 to 200% | < 1000 nM |
| COc1ncc(C2CCC2)cc1CN[C@H]1[C@H](C(C)(C)C)[C@@H](C(=O)O)N(C(=O)C2CCCCC2)[C@H]1c1ccccc1C | > 350% | < 1000 nM | > 200% | < 1000 nM |
| COc1ccc(C2(C)CCC2)cc1CN[C@H]1[C@H](C(C)(C)C)[C@@H](C(=O)O)N(C(=O)[C@@H]2CCCCO2)[C@H]1c1ccccc1C | > 350% | < 1000 nM | > 200% | < 1000 nM |
| COc1ccc(C(C)(C)C)cc1CN[C@H]1[C@H](C(C)(C)C)[C@@H](C(=O)O)N(C(=O)C2CCCCC2)[C@H]1c1cccnc1N(C)C | > 350% | < 1000 nM | > 200% | < 1000 nM |
| CC(C)c1ccccc1[C@H]1[C@@H](NCc2cccc3c2OC(C)(C)C3)[C@H](C(C)(C)C)[C@@H](C(=O)O)N1C(=O)[C@@H]1CCCCO1 | > 350% | < 1000 nM | > 200% | < 1000 nM |
| COc1ncc(C(C)C)cc1CN[C@H]1[C@H](C(C)(C)OC)[C@@H](C(=O)O)N(C(=O)C2CCCCC2)[C@H]1c1ccccc1 | > 350% | 1000 to 10000 nM | > 200% | 1000 to 10000 nM |
